Biological target: T1, BaF3 BRAF-KIAA1549 fusion cells (Homo sapiens, UniProt P15056)
T1 construct: The BRAF-KIAA1549 fusion mutant was subcloned into pMXs-IRES-Blasticidin (RTV-016, Cell Biolabs, San Diego, CA); No tag given; Q9HCM3 (UPF0606 protein KIAA1549)
Experiment: BaF3 BRAF-KIAA1549 fusion cell proliferation assay (CellTiterGlo, 96 hours)
Format: cell-based
Settings: Table A1
Method: Retroviral Production: The BRAF-KIAA1549 fusion mutant was subcloned into pMXs-IRES-Blasticidin (RTV-016, Cell Biolabs, San Diego, CA). Retrovirus was produced by transfection of HEK 293T cells with the retroviral BRAF mutant expression vector pMXs-IRES-Blasticidin (RTV-016, Cell Biolabs), pCMV-Gag-Pol vector and pCMV-VSV-G-Envelope vector. Briefly, HEK 293T cells were plated in Poly-D-lysine coated 6-well plate (2.5×10^5 cells per well) and incubated overnight. The next day, retroviral plasmids (1 μg of BRAF-KIAA fusion mutant, 0.32 μg of pCMV-Gag-Pol and 0.165 μg pCMV-VSV-G) were mixed in 300 μL of Optimem (31985, Life Technologies). The mixture was incubated at room temperature for 5 minutes and then added to Optimem containing transfection reagent Lipofectamine (11668, Invitrogen) and incubated for 20 minutes. The mixture was then added dropwise to HEK 293T cells. The next day the medium was replaced with fresh culture medium and retrovirus was harvested at 24 hours.
Generation of BRAF-KIAA1549 fusion stable cell line: BaF3 cells were plated in V-bottom 96 well plate (COSTAR #3894) in 80 μL of RPMI/10% FBS and 0.01 ng/mL mouse IL-3, supplemented with 8 μg/mL polybrene (4×10^4 cells/well). Cells were transduced with 20 μL of BRAF-KIAA1549 fusion viral supernatant by centrifuging for 30 minutes at 1000 rpm. Cells were placed in a 37° C. incubator overnight. Next day 100 μL of RPMI/10% FBS and 0.01 ng/mL mouse IL-3 was added. After 24 hours, 100 μL of cells were transferred to a 24 well plate containing 900 μL of RPM/10% FBS and 15 μg/mL Blasticidin. Contents of the 24 well plate were sampled for cell viability via CellTiterGlo (Promega) over a 2-week period.
Assay for cell proliferation: BaF3 BRAF-KIAA1549 fusion cells were resuspended at 1.5×10^5 c/mL in RPMI containing 10% Heat Inactivated FBS, 1% L-glutamine and dispensed in duplicate (7×10^4 c/well) into 384 well plates. To determine the effect of compound on cell proliferation, BaF3 BRAF-KIAA1549 fusion cells were incubated for 96 hours in the presence of vehicle control (DMSO) or compound at varying concentrations. Inhibition of cell growth was determined by luminescent quantification (Envision by Perkin Elmer) of intracellular ATP content using CellTiterGlo (Promega), according to the protocol provided by the manufacturer. To determine the IC50 values, the vehicle-treated cells were normalized as viable cells and analyzed using the CDD Vault, Collaborative Drug Discovery, Burlingame, CA (the Levenberg-Marquardt algorithm; Levenberg, K., […]; Marquardt, D., 1963).
Tables A1 and A2 assign each compound a code for potency in the BaF3 BRAF-KIAA1549 fusion cell proliferation assay: A, B, C, or D. According to the code, A represents an IC50 value <20 nM; B represents an IC50 value ≥20 nM and <100 nM; C represents an IC50 value ≥100 nM and <500 nM; and D represents an IC50 value ≥500 nM.

T1 sequence (P15056 whole entry, change not shown, the tested form may be a part): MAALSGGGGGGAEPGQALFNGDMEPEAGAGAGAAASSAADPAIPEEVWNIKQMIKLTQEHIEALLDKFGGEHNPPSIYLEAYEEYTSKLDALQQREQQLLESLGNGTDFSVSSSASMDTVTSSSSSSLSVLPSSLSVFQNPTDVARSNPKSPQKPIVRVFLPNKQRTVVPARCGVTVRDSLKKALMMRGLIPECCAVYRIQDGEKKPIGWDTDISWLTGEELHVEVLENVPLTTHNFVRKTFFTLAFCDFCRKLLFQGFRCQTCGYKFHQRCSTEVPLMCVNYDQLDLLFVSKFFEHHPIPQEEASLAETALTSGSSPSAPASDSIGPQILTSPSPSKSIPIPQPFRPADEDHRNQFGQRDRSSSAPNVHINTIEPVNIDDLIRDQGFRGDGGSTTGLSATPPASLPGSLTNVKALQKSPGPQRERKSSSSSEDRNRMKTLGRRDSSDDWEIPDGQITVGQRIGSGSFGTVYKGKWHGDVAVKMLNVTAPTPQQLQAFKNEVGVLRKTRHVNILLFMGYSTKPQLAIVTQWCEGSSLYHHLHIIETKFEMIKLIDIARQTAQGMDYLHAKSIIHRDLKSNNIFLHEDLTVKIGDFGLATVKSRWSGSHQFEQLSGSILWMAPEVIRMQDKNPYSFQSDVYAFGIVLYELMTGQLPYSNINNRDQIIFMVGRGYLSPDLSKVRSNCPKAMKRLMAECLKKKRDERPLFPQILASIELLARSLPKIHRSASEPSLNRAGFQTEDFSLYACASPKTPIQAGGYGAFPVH

Row | Structure (SMILES) | GI50 [µM]
1 | CNc1cc2ncc(-c3cc(NC(=O)C[C@@H]4C[C@H](C(F)(F)F)CCO4)ccc3C)cc2cn1 (single isomer, unassigned) [Compound 7, N-(4-Methyl-3-(7-(methylamino)-1,6-naphthyridin-3-yl)phenyl)-2-(4-(trifluoromethyl)tetrahydro-2H-pyran-2-yl)acetamide] | < 0.02
2 | CNc1cc2ncc(-c3cc(NC(=O)[C@H](C)n4cnc(C(F)(F)F)n4)ccc3C)cc2cn1 (single isomer, unassigned) [Compound 68] | 0.02 to 0.1
3 | CNc1cc2ncc(-c3cc(NC(=O)[C@@H](C)n4cnc(C(F)(F)F)n4)ccc3C)cc2cn1 (single isomer, unassigned) [Compound 69] | 0.1 to 0.5
4 | CNc1cc2ncc(-c3cc(NC(=O)c4cc(C(F)(F)F)ccn4)ccc3C)cc2cn1 [Compound 1, N-(4-methyl-3-(7-(methylamino)-1,6-naphthyridin-3-yl)phenyl)-4-(trifluoromethyl)picolinamide] | < 0.02
5 | CNc1cc2ncc(-c3cc(NC(=O)c4ccnc(C(F)(F)F)c4)ccc3C)cc2cn1 [Compound 2, N-(4-methyl-3-(7-(methylamino)-1,6-naphthyridin-3-yl)phenyl)-2-(trifluoromethyl)isonicotinamide] | 0.02 to 0.1
6 | CNc1cc2ncc(-c3cc(NC(=O)c4nccc(C(F)(F)F)c4Cl)ccc3C)cc2cn1 [Compound 6, 3-Chloro-N-(4-methyl-3-(7-(methylamino)-1,6-naphthyridin-3-yl)phenyl)-4-(trifluoromethyl)picolinamide] | < 0.02
7 | CNc1cc2ncc(-c3cc(NC(=O)c4ccnc(C(C)(F)F)c4)ccc3C)cc2cn1 [Compound 9, 2-(1,1-difluoroethyl)-N-(4-methyl-3-(7-(methylamino)-1,6-naphthyridin-3-yl)phenyl)isonicotinamide] | < 0.02
8 | CNc1cc2ncc(-c3cc(NC(=O)c4ccnc(C(C)(C)F)c4)ccc3C)cc2cn1 [Compound 10, 2-(2-Fluoropropan-2-yl)-N-(4-methyl-3-(7-(methylamino)-1,6-naphthyridin-3-yl)phenyl)isonicotinamide] | < 0.02
9 | CNc1cc2ncc(-c3cc(NC(=O)c4cc(C(F)F)ccn4)ccc3C)cc2cn1 [Compound 11, 4-(Difluoromethyl)-N-(4-methyl-3-(7-(methylamino)-1,6-naphthyridin-3-yl)phenyl)picolinamide] | 0.02 to 0.1
10 | CNc1cc2ncc(-c3cc(NC(=O)c4cc(C(C)(F)F)ccn4)ccc3C)cc2cn1 [Compound 12, 4-(1,1-Difluoroethyl)-N-(4-methyl-3-(7-(methylamino)-1,6-naphthyridin-3-yl)phenyl)picolinamide] | 0.02 to 0.1
11 | CNc1cc2ncc(-c3cc(NC(=O)c4cc(C(C)(C)F)ccn4)ccc3C)cc2cn1 [Compound 13, 4-(2-Fluoropropan-2-yl)-N-(4-methyl-3-(7-(methylamino)-1,6-naphthyridin-3-yl)phenyl)picolinamide] | 0.1 to 0.5
12 | CNc1cc2ncc(-c3cc(NC(=O)c4cc(C(C)(C)C#N)ccn4)ccc3C)cc2cn1 [Compound 14, 4-(2-Cyanopropan-2-yl)-N-(4-methyl-3-(7-(methylamino)-1,6-naphthyridin-3-yl)phenyl)picolinamide] | < 0.02
13 | CNc1cc2ncc(-c3cc(NC(=O)c4cc(C5(C#N)CC5)ccn4)ccc3C)cc2cn1 [Compound 16, 4-(1-Cyanocyclopropyl)-N-(4-methyl-3-(7-(methylamino)-1,6-naphthyridin-3-yl)phenyl)picolinamide] | < 0.02

Now from value to compound:

Row | GI50 [µM] | Structure (SMILES)
14 | 0.02 to 0.1 | CNc1cc2ncc(-c3cc(NC(=O)C[C@@H]4C[C@H](C(F)(F)F)CCO4)cnc3C)cc2cn1 (single isomer, unassigned) [Compound 35]
15 | 0.1 to 0.5 | CNc1cc2ncc(-c3cc(NC(=O)C[C@H]4C[C@H](C(F)(F)F)CCO4)cnc3C)cc2cn1 (single isomer, unassigned) [Compound 36]
16 | < 0.02 | CNc1cc2ncc(-c3cc(NC(=O)c4cncc(C(F)(F)F)c4)ccc3C)cc2cn1 [Compound 3, N-(4-methyl-3-(7-(methylamino)-1,6-naphthyridin-3-yl)phenyl)-5-(trifluoromethyl)nicotinamide]
17 | < 0.02 | CNc1cc2ncc(-c3cc(NC(=O)c4cccc(N(C)C)c4)ccc3C)cc2cn1 [Compound 4, 3-(Dimethylamino)-N-(4-methyl-3-(7-(methylamino)-1,6-naphthyridin-3-yl)phenyl)benzamide]
18 | 0.02 to 0.1 | CNc1cc2ncc(-c3cc(NC(=O)c4cc(C(F)(F)F)c(C)cn4)ccc3C)cc2cn1 [Compound 5, 5-Methyl-N-(4-methyl-3-(7-(methylamino)-1,6-naphthyridin-3-yl)phenyl)-4-(trifluoromethyl)picolinamide]
19 | 0.02 to 0.1 | CNc1cc2ncc(-c3cc(NC(=O)c4ccnc(C(F)F)c4)ccc3C)cc2cn1 [Compound 8, 2-(Difluoromethyl)-N-(4-methyl-3-(7-(methylamino)-1,6-naphthyridin-3-yl)phenyl)isonicotinamide]
20 | 0.02 to 0.1 | CNc1cc2ncc(-c3cc(NC(=O)c4cc(C5(C#N)CCC5)ccn4)ccc3C)cc2cn1 [Compound 15, 4-(1-Cyanocyclobutyl)-N-(4-methyl-3-(7-(methylamino)-1,6-naphthyridin-3-yl)phenyl)picolinamide]
21 | < 0.02 | CNc1cc2ncc(-c3cc(NC(=O)c4ccnc(C5CC(F)(F)C5)c4)ccc3C)cc2cn1 [Compound 17, 2-(3,3-Difluorocyclobutyl)-N-(4-methyl-3-(7-(methylamino)-1,6-naphthyridin-3-yl)phenyl)isonicotinamide]
22 | < 0.02 | CNc1cc2ncc(-c3cc(NC(=O)c4ccnc(C5(F)CC5)c4)ccc3C)cc2cn1 [Compound 18, 2-(1-Fluorocyclopropyl)-N-(4-methyl-3-(7-(methylamino)-1,6-naphthyridin-3-yl)phenyl)isonicotinamide]
23 | < 0.02 | CNc1cc2ncc(-c3cc(NC(=O)c4cccc(N(C)C)c4)cnc3C)cc2cn1 [Compound 19, 3-(Dimethylamino)-N-(6-methyl-5-(7-(methylamino)-1,6-naphthyridin-3-yl)pyridin-3-yl)benzamide]

Same assay, conditions: Table A2

Row | GI50 [µM] | Structure (SMILES)
24 | ≥ 0.5 | CNc1cc2ncc(-c3cc(NC(=O)c4cccc5c4CCC[C@@H]5O)cnc3C)cc2cn1 (single isomer, unassigned) [Compound 207]
25 | ≥ 0.5 | CNc1cc2ncc(-c3cc(NC(=O)c4cccc5c4CCC[C@H]5O)cnc3C)cc2cn1 (single isomer, unassigned) [Compound 208]
26 | 0.02 to 0.1 | CNc1cc2ncc(-c3cc(NC(=O)c4cnc5n4C[C@H](C)CC5)ccc3C)cc2cn1 (single isomer, unassigned) [Compound 230]
27 | 0.02 to 0.1 | CNc1cc2ncc(-c3cc(NC(=O)c4cnc5n4C[C@@H](C)CC5)ccc3C)cc2cn1 (single isomer, unassigned) [Compound 231]
28 | 0.02 to 0.1 | CNc1cc2ncc(-c3cc(NC(=O)c4noc5c4C[C@@H](C)CC5)ccc3C)cc2cn1 (single isomer, unassigned) [Compound 236]
29 | 0.02 to 0.1 | CNc1cc2ncc(-c3cc(NC(=O)c4noc5c4C[C@H](C)CC5)ccc3C)cc2cn1 (single isomer, unassigned) [Compound 237]
30 | 0.02 to 0.1 | CNc1cc2ncc(-c3cc(NC(=O)c4cc([C@@H](O)C(C)(F)F)ccn4)cnc3C)cc2cn1 (single isomer, unassigned) [Compound 248]
31 | 0.02 to 0.1 | CNc1cc2ncc(-c3cc(NC(=O)c4cc([C@H](O)C(C)(F)F)ccn4)cnc3C)cc2cn1 (single isomer, unassigned) [Compound 249]
32 | 0.02 to 0.1 | CNc1cc2ncc(-c3cc(NC(=O)c4cnc5n4C[C@@H](C)CC5)cnc3C)cc2cn1 (single isomer, unassigned) [Compound 258]
33 | 0.02 to 0.1 | CNc1cc2ncc(-c3cc(NC(=O)c4cnc5n4C[C@H](C)CC5)cnc3C)cc2cn1 (single isomer, unassigned) [Compound 259]
34 | < 0.02 | CNc1cc2ncc(-c3cc(NC(=O)N4CC[C@@H](CC(F)(F)F)C4)ccc3C)cc2cn1 (single isomer, unassigned) [Compound 267]

— patent US20250017914A1, “6-AZA-QUINOLINE DERIVATIVES AND RELATED USES” (Black Diamond Therapeutics, Inc., priority 2021, published 2025)
